{
  "source": "ChEMBL document CHEMBL5678809",
  "about": "“Preclinical characterization of GLPG0634, a selective inhibitor of JAK1, for the treatment of inflammatory diseases” (J Immunol, 2013)",
  "key": {"[1]": {"molecular_target": "Tyrosine-protein kinase ABL1 (Homo sapiens, UniProt P00519)", "sequence (P00519 whole entry)": "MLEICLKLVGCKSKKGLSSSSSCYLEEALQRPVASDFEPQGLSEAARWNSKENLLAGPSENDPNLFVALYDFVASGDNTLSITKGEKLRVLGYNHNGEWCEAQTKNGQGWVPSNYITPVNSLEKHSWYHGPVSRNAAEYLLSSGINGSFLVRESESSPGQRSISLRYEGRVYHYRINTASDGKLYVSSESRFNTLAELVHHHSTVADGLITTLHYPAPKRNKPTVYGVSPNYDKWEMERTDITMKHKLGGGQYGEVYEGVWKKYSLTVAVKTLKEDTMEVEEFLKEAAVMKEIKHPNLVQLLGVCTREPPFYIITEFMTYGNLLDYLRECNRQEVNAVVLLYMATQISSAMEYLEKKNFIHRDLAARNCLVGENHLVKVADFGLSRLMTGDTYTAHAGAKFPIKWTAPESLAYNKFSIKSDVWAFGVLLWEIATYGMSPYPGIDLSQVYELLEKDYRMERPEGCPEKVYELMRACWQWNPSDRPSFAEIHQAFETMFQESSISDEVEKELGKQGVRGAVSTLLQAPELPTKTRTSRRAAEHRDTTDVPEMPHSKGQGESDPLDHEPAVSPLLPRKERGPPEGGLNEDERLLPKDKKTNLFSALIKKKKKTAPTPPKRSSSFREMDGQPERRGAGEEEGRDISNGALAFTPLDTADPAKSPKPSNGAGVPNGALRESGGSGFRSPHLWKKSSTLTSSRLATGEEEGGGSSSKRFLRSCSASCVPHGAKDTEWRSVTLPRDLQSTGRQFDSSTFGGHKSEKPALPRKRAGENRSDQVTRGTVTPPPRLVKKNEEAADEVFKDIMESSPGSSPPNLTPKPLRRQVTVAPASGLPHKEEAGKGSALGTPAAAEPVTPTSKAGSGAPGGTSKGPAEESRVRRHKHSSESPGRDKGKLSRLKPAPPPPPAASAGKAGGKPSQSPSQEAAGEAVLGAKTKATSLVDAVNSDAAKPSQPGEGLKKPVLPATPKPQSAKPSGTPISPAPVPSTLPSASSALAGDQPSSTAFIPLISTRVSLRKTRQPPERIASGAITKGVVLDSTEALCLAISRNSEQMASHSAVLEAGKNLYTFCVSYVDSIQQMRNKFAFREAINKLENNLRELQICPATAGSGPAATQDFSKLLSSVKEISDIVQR", "assay": "Inhibition of ABL (unknown origin)"}, "[2]": {"molecular_target": "Tyrosine-protein kinase receptor UFO (Homo sapiens) (UniProt P30530)", "assay": "Inhibition of Axl (unknown origin) at 1 uM relative to control"}, "[3]": {"molecular_target": "Serine/threonine-protein kinase BRSK1 (Homo sapiens) (UniProt Q8TDC3)", "assay": "Inhibition of BrSK1 (unknown origin) at 1 uM relative to control"}, "[4]": {"molecular_target": "Dual specificity protein kinase CLK2 (Homo sapiens) (UniProt P49760)", "assay": "Inhibition of CLK2 (unknown origin) at 1 uM relative to control"}, "[5]": {"molecular_target": "RAF proto-oncogene serine/threonine-protein kinase (Homo sapiens) (UniProt P04049)", "sequence (P04049 whole entry)": "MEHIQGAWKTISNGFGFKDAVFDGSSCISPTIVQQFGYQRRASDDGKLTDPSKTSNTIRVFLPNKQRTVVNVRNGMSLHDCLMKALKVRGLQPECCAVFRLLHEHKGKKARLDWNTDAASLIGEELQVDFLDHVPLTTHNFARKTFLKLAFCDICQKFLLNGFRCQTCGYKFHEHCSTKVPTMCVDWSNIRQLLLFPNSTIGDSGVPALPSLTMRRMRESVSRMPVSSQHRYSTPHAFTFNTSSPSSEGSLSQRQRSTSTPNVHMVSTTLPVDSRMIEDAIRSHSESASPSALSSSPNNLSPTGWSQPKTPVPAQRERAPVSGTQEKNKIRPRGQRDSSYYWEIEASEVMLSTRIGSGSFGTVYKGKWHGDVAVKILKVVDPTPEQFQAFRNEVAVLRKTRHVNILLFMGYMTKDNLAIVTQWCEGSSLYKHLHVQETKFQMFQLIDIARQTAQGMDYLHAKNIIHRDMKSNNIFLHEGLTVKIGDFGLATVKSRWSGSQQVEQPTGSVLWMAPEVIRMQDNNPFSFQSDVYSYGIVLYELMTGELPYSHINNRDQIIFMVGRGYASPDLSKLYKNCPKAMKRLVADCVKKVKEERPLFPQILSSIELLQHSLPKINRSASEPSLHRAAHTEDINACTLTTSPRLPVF", "assay": "Inhibition of c-RAF (unknown origin) at 1 uM relative to control"}, "[6]": {"molecular_target": "Proto-oncogene tyrosine-protein kinase Src (Homo sapiens) (UniProt P12931)", "sequence (P12931 2-536 limits assumed)": "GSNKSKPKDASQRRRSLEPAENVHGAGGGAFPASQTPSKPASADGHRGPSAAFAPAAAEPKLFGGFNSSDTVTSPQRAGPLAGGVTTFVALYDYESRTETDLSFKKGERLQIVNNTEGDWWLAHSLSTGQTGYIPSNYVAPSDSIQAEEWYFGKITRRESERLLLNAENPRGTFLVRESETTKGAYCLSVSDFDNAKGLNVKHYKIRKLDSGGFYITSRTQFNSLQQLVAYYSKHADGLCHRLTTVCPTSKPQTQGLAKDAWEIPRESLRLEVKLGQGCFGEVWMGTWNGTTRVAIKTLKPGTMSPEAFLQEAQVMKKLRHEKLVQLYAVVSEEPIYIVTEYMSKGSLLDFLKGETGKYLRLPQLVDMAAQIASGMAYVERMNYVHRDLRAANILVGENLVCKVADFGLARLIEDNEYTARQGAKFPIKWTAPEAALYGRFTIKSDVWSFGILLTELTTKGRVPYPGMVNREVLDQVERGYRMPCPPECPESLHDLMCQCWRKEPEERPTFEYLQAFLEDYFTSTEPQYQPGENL", "assay": "Inhibition of SRC (unknown origin) at 1 uM relative to control"}, "[7]": {"molecular_target": "Serine/threonine-protein kinase 17A (Homo sapiens) (UniProt Q9UEE5)", "assay": "Inhibition of DRAK1 (unknown origin) at 1 uM relative to control"}, "[8]": {"molecular_target": "Dual specificity tyrosine-phosphorylation-regulated kinase 2 (Homo sapiens) (UniProt Q92630)", "assay": "Inhibition of DYRK2 (unknown origin) at 1 uM relative to control"}, "[9]": {"molecular_target": "Vascular endothelial growth factor receptor 1 (Homo sapiens, UniProt P17948)", "assay": "Inhibition of Flt1 (unknown origin)"}, "[10]": {"molecular_target": "Receptor-type tyrosine-protein kinase FLT3 (Homo sapiens, UniProt P36888)", "assay": "Inhibition of Flt3 (unknown origin)"}, "[11]": {"molecular_target": "T1, Vascular endothelial growth factor receptor 3 (Homo sapiens, UniProt P35916)", "T1 sequence (P35916 whole entry)": "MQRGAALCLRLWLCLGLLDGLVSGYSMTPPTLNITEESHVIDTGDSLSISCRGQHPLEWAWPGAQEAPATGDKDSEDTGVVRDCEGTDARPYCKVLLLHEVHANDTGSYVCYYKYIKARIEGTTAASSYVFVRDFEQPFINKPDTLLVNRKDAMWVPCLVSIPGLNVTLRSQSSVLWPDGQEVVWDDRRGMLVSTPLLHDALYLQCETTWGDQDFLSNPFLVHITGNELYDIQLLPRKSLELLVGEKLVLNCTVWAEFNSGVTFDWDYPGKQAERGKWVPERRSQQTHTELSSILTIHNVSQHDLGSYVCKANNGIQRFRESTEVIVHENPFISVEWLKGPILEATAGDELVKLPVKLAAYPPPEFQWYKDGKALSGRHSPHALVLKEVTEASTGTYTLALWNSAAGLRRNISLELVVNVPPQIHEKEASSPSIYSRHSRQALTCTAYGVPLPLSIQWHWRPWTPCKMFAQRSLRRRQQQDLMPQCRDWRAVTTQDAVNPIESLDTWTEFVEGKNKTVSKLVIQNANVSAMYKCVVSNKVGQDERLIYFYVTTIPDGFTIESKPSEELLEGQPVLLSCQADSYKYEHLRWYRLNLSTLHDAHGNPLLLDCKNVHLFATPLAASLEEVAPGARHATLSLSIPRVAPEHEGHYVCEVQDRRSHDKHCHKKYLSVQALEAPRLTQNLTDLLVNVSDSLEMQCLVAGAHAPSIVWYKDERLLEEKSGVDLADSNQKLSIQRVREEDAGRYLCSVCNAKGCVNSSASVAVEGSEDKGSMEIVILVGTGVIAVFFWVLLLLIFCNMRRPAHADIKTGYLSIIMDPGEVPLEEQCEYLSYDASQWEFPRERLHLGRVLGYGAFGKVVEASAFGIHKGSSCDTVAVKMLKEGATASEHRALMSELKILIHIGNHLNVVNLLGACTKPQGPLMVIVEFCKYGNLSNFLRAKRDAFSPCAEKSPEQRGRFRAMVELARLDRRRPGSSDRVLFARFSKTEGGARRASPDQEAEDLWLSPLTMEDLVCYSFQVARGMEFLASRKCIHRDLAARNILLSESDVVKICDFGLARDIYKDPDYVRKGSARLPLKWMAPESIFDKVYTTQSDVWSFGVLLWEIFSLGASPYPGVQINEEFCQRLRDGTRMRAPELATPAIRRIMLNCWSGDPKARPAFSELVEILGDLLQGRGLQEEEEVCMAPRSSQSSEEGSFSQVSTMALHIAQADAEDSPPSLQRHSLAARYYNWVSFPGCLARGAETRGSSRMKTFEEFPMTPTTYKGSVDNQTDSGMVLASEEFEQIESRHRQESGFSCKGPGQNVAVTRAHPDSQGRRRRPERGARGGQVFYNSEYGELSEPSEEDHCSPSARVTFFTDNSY", "assay": "Inhibition of Flt4 (unknown origin)"}, "[12]": {"molecular_target": "Homeodomain-interacting protein kinase 2 (Homo sapiens, UniProt Q9H2X6)", "assay": "Inhibition of HIPK2 (unknown origin)"}, "[13]": {"molecular_target": "Serine/threonine-protein kinase ICK (Homo sapiens, UniProt Q9UPZ9)", "assay": "Inhibition of ICK (unknown origin)"}, "[14]": {"molecular_target": "Interleukin-1 receptor-associated kinase 1 (Homo sapiens) (UniProt P51617)", "assay": "Inhibition of IRAK1 (unknown origin) at 1 uM relative to control"}, "[15]": {"molecular_target": "Vascular endothelial growth factor receptor 2 (Homo sapiens) (UniProt P35968)", "assay": "Inhibition of KDR (unknown origin) at 1 uM relative to control"}, "[16]": {"molecular_target": "Tyrosine-protein kinase Lck (Homo sapiens, UniProt P06239)", "sequence (P06239 whole entry)": "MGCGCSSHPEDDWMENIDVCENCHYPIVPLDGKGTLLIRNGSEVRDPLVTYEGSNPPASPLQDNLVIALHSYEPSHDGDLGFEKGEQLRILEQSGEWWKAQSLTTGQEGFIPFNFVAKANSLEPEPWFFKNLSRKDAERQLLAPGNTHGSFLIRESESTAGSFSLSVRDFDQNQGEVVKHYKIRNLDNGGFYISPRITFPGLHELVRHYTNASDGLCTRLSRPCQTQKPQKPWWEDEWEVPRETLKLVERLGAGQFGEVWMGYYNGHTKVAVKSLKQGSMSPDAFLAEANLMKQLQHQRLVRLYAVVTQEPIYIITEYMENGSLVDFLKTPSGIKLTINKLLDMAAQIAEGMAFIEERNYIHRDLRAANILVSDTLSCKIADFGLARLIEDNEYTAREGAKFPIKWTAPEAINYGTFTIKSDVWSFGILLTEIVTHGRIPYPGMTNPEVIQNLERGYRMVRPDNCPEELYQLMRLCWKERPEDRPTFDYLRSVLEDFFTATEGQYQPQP", "assay": "Inhibition of LCK (unknown origin)"}, "[17]": {"molecular_target": "Serine/threonine-protein kinase MARK1 (Homo sapiens) (UniProt Q9P0L2)", "assay": "Inhibition of MARK1 (unknown origin) at 1 uM relative to control"}, "[18]": {"molecular_target": "Dual specificity mitogen-activated protein kinase kinase 1 (Homo sapiens) (UniProt Q02750)", "assay": "Inhibition of MEK1 (unknown origin) at 1 uM relative to control"}, "Homo sapiens [19]": {"species_on_record": "Homo sapiens", "assay": "Inhibition of MRCK (unknown origin) at 1 uM relative to control"}, "[20]": {"molecular_target": "Ribosomal protein S6 kinase alpha-4 (Homo sapiens) (UniProt O75676)", "sequence (O75676 whole entry, looked up)": "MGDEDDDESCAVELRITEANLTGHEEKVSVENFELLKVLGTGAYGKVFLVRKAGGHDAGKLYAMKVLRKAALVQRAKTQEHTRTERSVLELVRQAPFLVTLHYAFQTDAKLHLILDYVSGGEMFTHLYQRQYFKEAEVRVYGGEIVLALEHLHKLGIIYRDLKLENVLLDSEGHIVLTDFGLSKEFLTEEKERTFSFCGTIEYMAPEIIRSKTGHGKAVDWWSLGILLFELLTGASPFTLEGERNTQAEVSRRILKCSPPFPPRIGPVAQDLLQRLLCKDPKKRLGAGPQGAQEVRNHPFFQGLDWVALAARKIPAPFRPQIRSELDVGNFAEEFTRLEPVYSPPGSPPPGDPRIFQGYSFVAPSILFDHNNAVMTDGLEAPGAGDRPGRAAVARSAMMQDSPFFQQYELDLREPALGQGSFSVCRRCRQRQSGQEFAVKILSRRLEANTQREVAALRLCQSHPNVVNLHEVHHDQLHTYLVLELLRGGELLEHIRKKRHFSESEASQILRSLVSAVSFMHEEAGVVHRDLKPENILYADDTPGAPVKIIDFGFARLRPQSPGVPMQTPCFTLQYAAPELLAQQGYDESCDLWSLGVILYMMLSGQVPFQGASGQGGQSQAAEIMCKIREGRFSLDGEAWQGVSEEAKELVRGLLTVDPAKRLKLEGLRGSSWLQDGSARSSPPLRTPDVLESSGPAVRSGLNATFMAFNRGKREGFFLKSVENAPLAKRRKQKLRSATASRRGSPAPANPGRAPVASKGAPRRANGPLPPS", "assay": "Inhibition of MSK2 (unknown origin) at 1 uM relative to control"}, "[21]": {"molecular_target": "Serine/threonine-protein kinase Nek11 (Homo sapiens) (UniProt Q8NG66)", "assay": "Inhibition of NEK11 (unknown origin) at 1 uM relative to control"}, "[22]": {"molecular_target": "Serine/threonine-protein kinase NLK (Homo sapiens) (UniProt Q9UBE8)", "assay": "Inhibition of NLK (unknown origin) at 1 uM relative to control"}, "[23]": {"molecular_target": "Serine/threonine-protein kinase MARK2 (Homo sapiens) (UniProt Q7KZI7)", "assay": "Inhibition of PAR-1B (unknown origin) at 1 uM relative to control"}, "Homo sapiens [24]": {"species_on_record": "Homo sapiens", "assay": "Inhibition of PKB3 (unknown origin) at 1 uM relative to control"}, "[25]": {"molecular_target": "Ribosomal protein S6 kinase alpha-3 (Homo sapiens) (UniProt P51812)", "assay": "Inhibition of Rsk2 (unknown origin) at 1 uM relative to control"}, "[26]": {"molecular_target": "Proto-oncogene tyrosine-protein kinase Src (Homo sapiens) (UniProt P12931)", "assay": "Inhibition of Src (unknown origin) (1 to 530 residues) at 1 uM relative to control"}, "[27]": {"molecular_target": "SRSF protein kinase 1 (Homo sapiens) (UniProt Q96SB4)", "assay": "Inhibition of SRPK1 (unknown origin) at 1 uM relative to control"}, "[28]": {"molecular_target": "Mitogen-activated protein kinase kinase kinase 7 (Homo sapiens, UniProt O43318)", "assay": "Inhibition of TAK1 (unknown origin)"}, "[29]": {"molecular_target": "Serine/threonine-protein kinase WNK3 (Homo sapiens) (UniProt Q9BYP7)", "assay": "Inhibition of WNK3 (unknown origin) at 1 uM relative to control"}, "[30]": {"molecular_target": "T1, Vascular endothelial growth factor receptor 3", "assay": "Inhibition of Flt4 (unknown origin) at 1 uM relative to control"}, "[31]": {"assay": "Tmax in CD-1 mouse at 5 mg/kg, po measured upto 24 hrs by LC-MS analysis", "assay_type": "ADME, organism-based", "settings": "in vivo"}, "[32]": {"assay": "Half life in CD-1 mouse at 1 mg/kg, iv measured upto 8 hrs by LC-MS analysis", "assay_type": "ADME, organism-based", "settings": "in vivo"}, "[33]": {"assay": "Tmax in Dark Agouti rat at 3 to 30 mg/kg, po", "assay_type": "ADME, organism-based", "settings": "in vivo, dose 3-30 mg/kg"}, "[34]": {"assay": "Half life in Dark Agouti rat at 3 to 30 mg/kg, po", "assay_type": "ADME, organism-based", "settings": "in vivo, dose 3-30 mg/kg"}, "Rattus norvegicus": {"test_system": "Rattus norvegicus", "assay": "Antiarthritic activity against collagen-induced arthritis Dark Agouti rat model assessed as reduction in bone degradation by measuring larsen score administered 3 times a week and measured on day 7 by X-ray analysis", "assay_type": "functional, organism-based", "settings": "dose 3.0 mg/kg, time 7.0 day"}, "Mus musculus [35]": {"test_system": "Mus musculus", "assay": "Antiarthritic activity against collagen-induced arthritis DBA/1J mouse model assessed as reduction in infiltration of F4/80+ macrophage cells in paw at 50 mg/kg, po administered twice daily for 14 days by immunohistochemistry analysis", "assay_type": "functional, organism-based", "settings": "time 14.0 day"}, "Mus musculus [36]": {"test_system": "Mus musculus", "assay": "Antiarthritic activity against collagen-induced arthritis DBA/1J mouse model assessed as reduction in Mx1 expression in paw at 50 mg/kg, po measured for 2 weeks by RT-PCR analysis", "assay_type": "functional, organism-based"}, "Mus musculus [37]": {"test_system": "Mus musculus", "assay": "Antiarthritic activity against collagen-induced arthritis DBA/1J mouse model assessed as MCP-3 level in serum at 50 mg/kg, po measured for 4 hrs by luminex analysis (reference value: 224 +/- 15.3 ng/ml)", "assay_type": "functional"}, "Mus musculus [38]": {"test_system": "Mus musculus", "assay": "Antiarthritic activity against collagen-induced arthritis DBA/1J mouse model assessed as KC/GRO level in serum at 50 mg/kg, po measured for 4 hrs by luminex analysis (reference value: 73.6 +/- 18.6 ng/ml)", "assay_type": "functional"}, "Mus musculus [39]": {"test_system": "Mus musculus", "assay": "Antiarthritic activity against collagen-induced arthritis DBA/1J mouse model assessed as IL-1alpha level in serum at 50 mg/kg, po measured for 4 hrs by luminex analysis (reference value: 359 +/- 83.8 ng/ml)", "assay_type": "functional"}, "Mus musculus [40]": {"test_system": "Mus musculus", "assay": "Antiarthritic activity against collagen-induced arthritis DBA/1J mouse model assessed as LIF level in serum at 50 mg/kg, po measured for 4 hrs by luminex analysis (reference value: 696 +/- 108 ng/ml)", "assay_type": "functional"}},
  "note": "Calls of active or inactive are those of the source. No cut-off for these calls is given here.",
  "data": [
    {"molecule": "O=C(Nc1nc2cccc(-c3ccc(CN4CCS(=O)(=O)CC4)cc3)n2n1)C1CC1", "note": "[FILGOTINIB]", "values": [
      {"measurement": "IC50", "setting": "[1]", "result": 2.3, "unit": "µM"},
      {"measurement": "inhibition", "setting": "[2]", "result": -5, "unit": "%"},
      {"measurement": "inhibition", "setting": "[3]", "result": -5, "unit": "%"},
      {"measurement": "inhibition", "setting": "[4]", "result": 10, "unit": "%"},
      {"measurement": "inhibition", "setting": "[5]", "result": -4, "unit": "%"},
      {"measurement": "inhibition", "setting": "[6]", "result": -10, "unit": "%"},
      {"measurement": "inhibition", "setting": "[7]", "result": 26, "unit": "%"},
      {"measurement": "inhibition", "setting": "[8]", "result": -1, "unit": "%"},
      {"measurement": "IC50", "setting": "[9]", "result": 1.33, "unit": "µM"},
      {"measurement": "IC50", "setting": "[10]", "result": 0.338, "unit": "µM"},
      {"measurement": "IC50", "setting": "[11]", "result": 0.274, "unit": "µM"},
      {"measurement": "IC50", "setting": "[12]", "result": "> 10", "unit": "µM"},
      {"measurement": "IC50", "setting": "[13]", "result": "> 10", "unit": "µM"},
      {"measurement": "inhibition", "setting": "[14]", "result": 2, "unit": "%"},
      {"measurement": "inhibition", "setting": "[15]", "result": 28, "unit": "%"},
      {"measurement": "IC50", "setting": "[16]", "result": "> 10", "unit": "µM"},
      {"measurement": "inhibition", "setting": "[17]", "result": 7, "unit": "%"},
      {"measurement": "inhibition", "setting": "[18]", "result": -3, "unit": "%"},
      {"measurement": "inhibition", "setting": "Homo sapiens [19]", "result": -3, "unit": "%"},
      {"measurement": "inhibition", "setting": "[20]", "result": 7, "unit": "%"},
      {"measurement": "inhibition", "setting": "[21]", "result": -2, "unit": "%"},
      {"measurement": "inhibition", "setting": "[22]", "result": -6, "unit": "%"},
      {"measurement": "inhibition", "setting": "[23]", "result": -7, "unit": "%"},
      {"measurement": "inhibition", "setting": "Homo sapiens [24]", "result": -6, "unit": "%"},
      {"measurement": "inhibition", "setting": "[25]", "result": 1, "unit": "%"},
      {"measurement": "inhibition", "setting": "[26]", "result": 32, "unit": "%"},
      {"measurement": "inhibition", "setting": "[27]", "result": 4, "unit": "%"},
      {"measurement": "IC50", "setting": "[28]", "result": "> 10", "unit": "µM"},
      {"measurement": "inhibition", "setting": "[29]", "result": -2, "unit": "%"},
      {"measurement": "inhibition", "setting": "[30]", "result": 77, "unit": "%"},
      {"measurement": "Tmax", "setting": "[31]", "result": 0.5, "unit": "h"},
      {"measurement": "half-life", "setting": "[32]", "result": 2.5, "unit": "h"},
      {"measurement": "Tmax", "setting": "[33]", "result": "~1", "unit": "h"},
      {"measurement": "half-life", "setting": "[34]", "result": "~4", "unit": "h"},
      {"measurement": "Activity", "setting": "Rattus norvegicus", "result": "Dose-Dependent Effect"},
      {"measurement": "Activity", "setting": "Mus musculus [35]", "result": "Active"},
      {"measurement": "Activity", "setting": "Mus musculus [36]", "result": "Active"},
      {"measurement": "Activity", "setting": "Mus musculus [37]", "result": 153.8, "unit": "ng/mL"},
      {"measurement": "Activity", "setting": "Mus musculus [38]", "result": 33.6, "unit": "ng/mL"},
      {"measurement": "Activity", "setting": "Mus musculus [39]", "result": 123, "unit": "ng/mL"},
      {"measurement": "Activity", "setting": "Mus musculus [40]", "result": 743.8, "unit": "ng/mL"}
    ]}
  ]
}
